What was measured:
[1] = system: Plasmodium falciparum; experiment: NOVARTIS: Inhibition of Plasmodium falciparum 3D7 (drug-susceptible) proliferation in erythrocyte-based infection assay; assay type: functional, organism-based; conditions: Plasmodium falciparum, 3D7
[2] = NOVARTIS: Cytotoxicity against human hepatocellular carcinoma cell line (Huh7); assay type: toxicity, cell-based, Huh-7; conditions: Huh7 cells (hepatocellular carcinoma cell line)
[3] = system: Plasmodium falciparum; experiment: NOVARTIS: Inhibition of Plasmodium falciparum W2 (drug-resistant) proliferation in erythrocyte-based infection assay; assay type: functional, organism-based; conditions: Plasmodium falciparum, W2; read-out: EC50

Compound | EC50 [1] | CC50 [2] | EC50 [3]
O=C(N1CCN(c2ccc(C(F)(F)F)cc2[N+](=O)[O-])CC1)C(Cl)(Cl)Cl | 0.263 µM | > 95 µM | 0.0866 µM
Clc1ccccc1Nc1nc2nonc2nc1Nc1cccc(Br)c1 | > 1.25 µM | > 10 µM | > 0.678 µM
O=C1NN(c2ccc(Br)cc2)C(=O)C1=Cc1c(O)ccc2ccccc12 | 4.88 µM | > 100 µM | 0.818 µM
CCN1CCN(c2cc(C)c3cc(NC(=O)/C=C/c4ccccc4Cl)ccc3n2)CC1 | 0.966 µM | > 10 µM | > 1.25 µM
CCNC(=O)[C@@H]1C[C@@H](NC2C3CC4CC(C3)CC2C4)CN1Cc1cccc(OC)c1OC (stereo partly drawn) | > 12.5 µM | 72.2 µM | 4.6 µM
COc1ccc(CCNc2nc(NCCCN3CCCCC3C)ncc2C(=O)NCc2ccccc2)cc1OC (stereo not drawn) | 0.323 µM | > 10 µM | < 0.0161 µM
c1ccc(-c2cc(N3CCc4ccccc4C3)nc(-c3ccccn3)n2)nc1 | 0.251 µM | > 10 µM | 1.11 µM
CCCCCCOC(=O)C1=C(C)NC(=O)NC1c1ccccc1F (stereo not drawn) | > 6.76 µM | > 100 µM | > 8.31 µM
c1cncc(-c2cc(N3CCc4ccccc4C3)nc(-c3ccncc3)n2)c1 | 0.602 µM | > 10 µM | 0.794 µM
C(=NNc1nc2ccccc2[nH]1)c1ccccc1 | 0.587 µM | > 100 µM | 1.19 µM
COc1cncc(-c2cncc(N3CCN(c4ccncc4)CC3)n2)c1 | 0.0804 µM | > 10 µM | 0.0947 µM
CCOC(=O)c1nnn(-c2nonc2N)c1-c1ccc(OC)cc1 | 0.653 µM | > 100 µM | 0.564 µM
CCCOC(=O)C1=C(C)NC2=C(C(=O)CC(c3ccc(OC)cc3)C2)C1c1ccc([N+](=O)[O-])cc1 (stereo not drawn) | 0.281 µM | > 100 µM | 0.0514 µM
COc1ccc(-n2nc(C(=O)NCCC3=CCCCC3)c3ccccc3c2=O)cc1 | 7.22 µM | > 100 µM | > 9.81 µM
CN(CCCNc1ccnc2cc(Cl)ccc12)C(=O)C1C[C@H]1c1ccccc1 (stereo partly drawn) | 0.0761 µM | > 11.6 µM | 0.411 µM
COc1cccc(-c2ccc(O)c(CNCc3ccccc3OC)c2)n1 | 1.09 µM | > 10 µM | 0.939 µM
Cc1nc(N2CCCCC2)c2c(C)c(C(=O)N3CCN(c4cccc(Cl)c4)CC3)sc2n1 | > 12.5 µM | > 100 µM | 0.319 µM
CC1=CC[C@@H](/C(C)=C/c2csc(C)n2)OC(=O)C[C@H](O)C(C)(C)C(=O)[C@H](C)[C@@H](O)[C@@H](C)CCC1 | 0.0854 µM | 0.00621 µM | 0.0258 µM
Cc1nnc2sc(SCc3ccc([N+](=O)[O-])cc3)nn2c1=O | > 0.481 µM | > 10 µM | > 1.65 µM
CCCCCCC(=O)NC1CCC(Nc2ccnc3cc(Cl)ccc23)CC1 (stereo not drawn) | 0.63 µM | > 10 µM | > 1.25 µM
CCOC(=O)C1=C(C)NC2=C(C(=O)CC(C)(C)C2)C1c1ccc(Cl)cc1 (stereo not drawn) | 0.116 µM | > 100 µM | 0.0676 µM
c1cc2cc3c(cc2c2cc4c(cc12)C[N+]1(CCCC1)C4)C[N+]1(CCCC1)C3 | 0.645 µM | > 100 µM | 1.06 µM

Compound | EC50 [1] | CC50 [2] | EC50 [3]
c1ccc2cc3c(Nc4ccc(N5CCCCC5)cc4)ccnc3cc2c1 | 0.743 µM | 67.7 µM | 1.22 µM
CCCC[C@@H](C)C(O)[C@H]1C(=O)N[C@@H](CC)C(=O)N(C)CC(=O)N(C)[C@@H](CC(C)C)C(=O)N[C@@H](C(C)C)C(=O)N(C)[C@@H](CC(C)C)C(=O)N[C@@H](C)C(=O)N[C@H](C)C(=O)N(C)[C@@H](CC(C)C)C(=O)N(C)[C@@H](CC(C)C)C(=O)N(C)[C@@H](C(C)C)C(=O)N1C (stereo partly drawn) | 0.859 µM | > 10 µM | 0.251 µM
COCCn1nnnc1C(c1cc2cc3c(cc2[nH]c1=O)OCCO3)N1CCC(O)CC1 (stereo not drawn) | > 1.25 µM | > 10 µM | 0.974 µM
COc1ccc([C@@H]2C[C@H](OC(=O)c3ccc4c(c3)OCO4)C(=O)N2C)cc1 | 1.18 µM | > 10 µM | > 1.25 µM
CC1=C(C(=O)OC2CCCCC2)C(c2cccc([N+](=O)[O-])c2)C2=C(CCCC2=O)N1 (stereo not drawn) | 1.64 µM | 68.4 µM | 1.33 µM
C=CCOc1ccccc1CN1CCN(c2ccccn2)CC1 | > 9.99 µM | > 98.5 µM | 4.85 µM
CC(C)COc1nc(-c2ccccc2)n(S(=O)(=O)c2cccc3cccnc23)n1 | 0.0423 µM | > 2.16 µM | 0.00456 µM
CC1CCCCN1CCCNc1ncc(C(=O)NCCc2ccccc2)c(Nc2ccccc2)n1 (stereo not drawn) | 1.12 µM | > 10 µM | > 1.25 µM
C=CCOc1cccc(/C=C2/NC(C)=C(C(=O)OCC)C2=O)c1 | > 1.04 µM | > 10 µM | > 0.933 µM
O=C(O[Si](c1ccccc1)(c1ccccc1)c1ccccc1)c1ccccc1 | > 1.25 µM | > 10 µM | 1.32 µM
CC(=O)Nn1c(C(C)(C)C)nc2ccccc2c1=O | > 1.47 µM | > 10 µM | 2.47 µM
CCc1ccc(C(=O)Oc2ccccc2-c2nc3ccccn3c2NC(C)(C)CC(C)(C)C)cc1 | 1.76 µM | > 10 µM | 0.259 µM
CC(=O)N(C)C1=C(N2CCOCC2)C(=O)c2ccccc2C1=O | 0.254 µM | 0.59 µM | 0.288 µM
O=C(CN1CCN(S(=O)(=O)c2cccc([N+](=O)[O-])c2)CC1)Nc1ccc(OCc2ccccc2)cc1 | 3.91 µM | > 100 µM | 2.65 µM
Cc1cccc(-c2nc3cc(NC(=O)c4ccc([N+](=O)[O-])o4)ccc3o2)c1 | 1.72 µM | > 100 µM | > 12.5 µM
CCOC(=O)C1=C(C)NC2=C(C(=O)C(C(=O)OC)C(C)C2)C1c1cc(Br)c(OC)c(OC)c1 (stereo not drawn) | 0.537 µM | > 100 µM | 0.0404 µM
CC(C)NC(=O)N1CCN(C(=O)C(Cc2c[nH]c3ccccc23)NC(=O)Nc2cccc(Cl)c2Cl)CC1C (stereo not drawn) | 0.0272 µM | 57.7 µM | 0.0439 µM
CN(CCCNc1ccnc2cc(Cl)ccc12)C(=O)COc1ccccc1 | 0.0983 µM | > 10 µM | 0.286 µM
O=C(Nc1cccc(-c2nc3ccccc3[nH]2)c1)c1ccccc1[N+](=O)[O-] | > 1.72 µM | > 6 µM | > 0.772 µM
COc1ccc(C2(CNCC(O)c3cccc([N+](=O)[O-])c3)CCCC2)cc1OC (stereo not drawn) | 0.49 µM | > 100 µM | 0.0525 µM
COc1cc(NC(C)CCCN(Cc2ccc(F)cc2)C(=O)C(c2ccccc2)c2ccccc2)c2ncccc2c1 (stereo not drawn) | > 1.09 µM | > 3.47 µM | < 0.000572 µM
COc1ccccc1N1CCN(c2c3c(nc4nncn24)CCC3)CC1 | > 0.736 µM | > 10 µM | > 1.25 µM

Compound | EC50 [1] | CC50 [2] | EC50 [3]
C=C[C@H]1CN2CC[C@H]1C[C@@H]2[C@@H](O)c1ccnc2ccc(OC)cc12 [QUINIDINE] | 0.00959 µM | 50.8 µM | 0.0352 µM
CC(=C(Cl)Cl)C(Br)=C(Br)CO | 0.119 µM | 50.9 µM | 1.69 µM
CC(=NNC(=O)/C(=C/c1ccc([N+](=O)[O-])cc1)NC(=O)c1ccccc1)c1ccccn1 | 1.05 µM | > 10 µM | 0.117 µM
CCCCNCCN1CCN(c2cc(OC)cc(OC)c2)C[C@@H]1Cc1ccccc1 | > 1.25 µM | 10.3 µM | 0.938 µM
Cc1cc2ncn(N=Cc3cccnc3)c2cc1C | > 1.02 µM | > 10 µM | > 1.25 µM
Cc1c(NC(=S)N2CCOCC2)c(=O)n(-c2ccccc2)n1C | > 0.919 µM | > 10 µM | > 1.25 µM
c1cncc(-c2cc(NCCCN3CCOCC3)nc(-c3ccncc3)n2)c1 | 1.08 µM | > 10 µM | 1.21 µM
CC(=O)NCCc1nc2ccccc2n1Cc1ccc(C(C)C)cc1 | 0.764 µM | 48.7 µM | 0.0981 µM
O=C(CNC(=O)c1ccccc1)Oc1ccc(Cl)cc1 | 0.537 µM | > 10 µM | > 1.25 µM
CCC(c1nc2ccccc2c(=O)n1CC)N1CCN(C(=O)Nc2ccccc2C(F)(F)F)CC1 (stereo not drawn) | 1.3 µM | > 10 µM | > 1.25 µM
COc1ccc(-c2nc(SCCCCC(=O)N3CCN(C(c4ccccc4)c4ccccc4)CC3)[nH]c2-c2ccc(OC)cc2)cc1 | > 1.19 µM | > 10 µM | < 0.0134 µM
CCCCNC(=O)C(c1cccc(OC)c1)N1C(=O)c2cc(Oc3ccccc3)ccc2NC(=O)C1CO (stereo not drawn) | 0.181 µM | > 14 µM | < 0.008 µM
N#Cc1ccc(NC(=O)NC2CC3CCCC(C2)N3CCc2ccccc2)cc1 (stereo not drawn) | 0.362 µM | 48.6 µM | 0.425 µM
CCCc1cc(-c2onc(C)c2-c2ccc(C(=O)OCC)o2)c(O)cc1OC | 0.413 µM | 18.5 µM | 0.346 µM
Cc1nn(C)cc1-c1nc2cnccn2c1NCC1CCCO1 (stereo not drawn) | > 1.25 µM | > 10 µM | > 0.876 µM
CC(OC(=O)c1ccccc1N1C(=O)C2C3C=CC(C4CC34)C2C1=O)C(=O)c1ccccc1 (stereo not drawn) | 0.961 µM | > 100 µM | 1.57 µM
COc1cc(C(=O)NC2CC3CCC(C2)N3C2CC2)cc(OC)c1OC (stereo not drawn) | 0.45 µM | > 100 µM | 0.487 µM
CCCNC(=O)N1CCC2(CC1)CC(=O)c1ccccc1O2 | > 1.25 µM | > 10 µM | 1.77 µM
OC1=C2C(=Nc3ccccc3SC2c2ccccc2)c2ccccc21 (stereo not drawn) | 0.0467 µM | 27.1 µM | 0.112 µM
O=C(Nc1ccc(-c2nnc(-c3ccc(NC(=O)c4ccccc4[N+](=O)[O-])cc3)o2)cc1)c1ccccc1[N+](=O)[O-] | 0.406 µM | > 100 µM | > 12.5 µM
CCCOC(=O)C1=C(C)NC2=C(C(=O)CC(c3ccc(OC)cc3)C2)C1c1ccccc1F (stereo not drawn) | 0.055 µM | > 100 µM | 0.0201 µM
Cc1cc(C)n(CC(O)Cn2c3ccc(Br)cc3c3cc(Br)ccc32)n1 (stereo not drawn) | 1.04 µM | 45.4 µM | 0.284 µM

— ChEMBL document CHEMBL1156829 (Proc Natl Acad Sci U S A, 2008)
